Data as given in patent US20210145768A1, “MODULATING IMMUNE RESPONSE VIA TARGETING OF OLFACTORY RECEPTOR ACTIVITY” (La Jolla Institute for Allergy and Immunology, priority 2018, published 2021).

Tests used:
[1] = Plasma lipids, body weight and hematological parameters in treated Apoe−/− mice; assay type: in vivo, mouse
Protocol: Male Apoe^−/− mice (9 to 10 wks old) were fed WD for 4 weeks. Oct or Cit were diluted in sterile phosphate buffered saline (PBS) (Gibco) at a final concentration of 10 μg/g. 100 μl were injected intraperitoneally (i.p.) every 3 days for 4 weeks (12 injections total) while maintaining WD administration. PBS+0.1% DMSO (Sigma Aldrich) was injected as a vehicle control following the same protocol. Mice were sacrificed, perfused with PBS implemented with 2% heparin (Fresenius Kabi USA, LLC) and aortas removed for en face atherosclerotic lesion assessment. Mouse whole blood (heart puncture) was collected in EDTA tubes. Leukocyte blood counts were determined with HemaVet 950 (Drew Scientific). Plasma was collected from blood centrifuged at 3000 g for 15 min at 4° C. and stored at −80° C. until further analysis. Lipid analysis of collected plasma was performed by IDEXX BioResearch.

[2] = molecular target: T1, Olfr2 (Mus musculus, UniProt Q9QWU6); assay: Calcium signalling (Fluo-4, flow cytometry) in vascular macrophages; assay type: cell-based; parameters: Olfr2 expression was confirmed at the protein level on F4/80^+ vascular macrophages; from tissue; host or cells: explanted whole aortas, digested aortic cell suspensions (F4/80+ vascular macrophages) and blood monocytes of Apoe-/- C57BL/6J mice; living Apoe-/- mice for the in vivo study
T1 sequence (Q9QWU6 1-327): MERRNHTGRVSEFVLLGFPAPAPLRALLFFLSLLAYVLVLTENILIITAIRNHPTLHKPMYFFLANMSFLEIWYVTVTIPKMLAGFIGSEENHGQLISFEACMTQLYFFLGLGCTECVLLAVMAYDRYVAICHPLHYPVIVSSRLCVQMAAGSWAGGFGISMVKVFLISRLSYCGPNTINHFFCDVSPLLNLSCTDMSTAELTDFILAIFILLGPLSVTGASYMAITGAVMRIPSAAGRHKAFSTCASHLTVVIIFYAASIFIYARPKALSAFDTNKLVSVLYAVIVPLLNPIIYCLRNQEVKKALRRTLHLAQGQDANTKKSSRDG
Protocol: The role of Olfr2 ligation on inflammatory responses was investigated by measuring intracellular free calcium (Can in vascular macrophages. Briefly, mouse aortic cell suspensions were loaded with 2 μM Fluo-4 at 37° C. for 30 min, then washed and incubated with cell surface markers at RT for 20 min CD45^+, live, dump channel^− (TCRb^−, CD19^−), F4/80^+ macrophages were analyzed by flow cytometry. Olfr2 agonist Oct (10 μM), and antagonist Cit (100 μM) alone or combined (Oct+Cit) were added 60 seconds (s) after the acquisition started. DMSO (0.1%) was injected as a control (Ctrl).
Aortic cell suspensions obtained as previously described^18 were pre-incubated with extracellular markers for vascular macrophages including CD45-PerCP, TCRβ/CD4-APCCy7 (Dump Channel), F4/80-BV421 and LD Yellow fixable dye (Invitrogen) for 20 min in Fc block solution at RT in the dark. Aortic cell suspensions were than washed twice and loaded with 2 μM of Fluo4 dye (Thermo Fischer Scientific) for 30 min at 37° C.
Subsequently, cells were washed and resuspended in 37° C. warm HBSS buffer containing Ca^2+ and Mg^2+ and acquired with the LSRII flow cytometer. After 60 seconds, Oct (10 μM), Cit (100 μM) or vehicle (DMSO 0.1%) was added and acquisition continued for additional 140 seconds. Data was acquired with FACSDiva software (BD Biosciences) and analyzed with FlowJo software (Treestar Inc). Mean fluorescence intensity of Fluo4 was integrated over 25 seconds form the start of the acquisition (tot. 8 intervals).

[3] = molecular target: T2, OR6A2 (Homo sapiens, UniProt O95222); assay: IL-1β production in LPS-primed human MDMs; assay type: cell-based
T2 construct: OR6A2 protein surface expression in hMDMs was confirmed by flow cytometry; endogenous in cells; host or cells: human monocyte-derived macrophages from healthy donors (rhM-CSF, 7 d)
T2 sequence (O95222 1-327): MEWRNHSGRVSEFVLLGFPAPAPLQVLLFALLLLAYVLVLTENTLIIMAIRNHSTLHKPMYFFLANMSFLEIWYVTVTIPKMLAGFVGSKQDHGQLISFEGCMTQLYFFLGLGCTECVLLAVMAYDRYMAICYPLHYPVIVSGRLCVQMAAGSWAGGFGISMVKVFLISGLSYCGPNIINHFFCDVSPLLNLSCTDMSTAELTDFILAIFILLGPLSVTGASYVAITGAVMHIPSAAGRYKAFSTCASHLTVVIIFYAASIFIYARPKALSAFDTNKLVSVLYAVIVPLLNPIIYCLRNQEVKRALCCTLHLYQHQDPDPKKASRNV
Protocol: Mouse BMDMs and human MDMs were pretreated with LPS (50 ng/mL) or left untreated for 18 h at 37° C. and 5% CO2. After this period LPS pretreated and untreated cells were further incubated with Oct (10 μM) and Cit (100 μM) alone (LPS+Oct; LPS+Cit; Oct; Cit, respectively) or combined (LPS+Oct+Cit) for further 8 h. Supernatants were collected by centrifugation at 2000 g for 15 minutes at 4° C., collected and frozen at −80° C. until further IL-1β analysis by CBA (BD Biosciences).
Supernatants of stimulated cells and aortic tissue were analyzed by BD CBA Flex Sets (BD Biosciences) for mouse TNFα, CCL2, CCL4, IL-1β, or human TNF, IL6, and IL-1β according to the manufacturer's protocol. Samples were analyzed with LSR-II (BD Biosciences). Data was acquired with FACSDiva software (BD Biosciences) and analyzed with FCAP array software 3.0 (BD Biosciences).

Row | Compound | other parameters (body weight, hematological, lipids) ([1]; citral-treated Apoe−/− mice) | octanal-induced calcium flux in vascular macrophages ([2]; citral 100 μM + octanal 10 μM) | octanal-induced IL-1β in the supernatant, hMDMs ([3]; LPS, octanal + citral) | total cholesterol, LDL cholesterol, HDL cholesterol or triglycerides ([1]; octanal-treated Apoe−/− mice) | calcium signal in other immune cells (TCRb+, CD19+) ([2]; octanal 10 μM, citral 100 μM alone or combined) | intracellular free calcium (Fluo-4 MFI) in F4/80+ vascular macrophages ([2]; octanal 10 μM, at 100 and 125 s after injection) | IL-1β in the supernatant, hMDMs ([3]; LPS 50 ng/mL 18 h, then octanal)
1 | CC(C)=CCCC(C)=CC=O [citral] | no effect | completely blocked | partially but significantly inhibited | – | – | – | –
2 | CCCCCCCC=O [octanal] | – | – | – | no effect | No calcium signal | highly significant increase | highly significant increase
